Biological target: T1, FLuc-C-HiBiT (Photinus pyralis, UniProt P08659)
T1 construct: firefly luciferase with C-terminal HiBiT tag, E. coli expressed
Assay: biochemical
Settings: enzyme activity, 10 uM ATP; read-out: IC50 or SDR50 (mM) / FLuc E
Procedure: The enzyme activity of FLuc-N-HiBiT, FLuc-C-HiBiT, and FLuc-C-NLuc was measured similar to P. pyralis firefly luciferase (FLuc) as previously described. […] Compounds and controls were added to each plate as described in Supplementary Data 8 with a Hornet pintool system (Wako Automation). Compounds were incubated with respective enzymes for 30–60 min at room temperature protected from light and covered by solid metal lid to prevent evaporation. […] Luciferin was incubated with FLuc enzyme for 5 min before FLuc activity was then measured on a ViewLux CCD imager (PerkinElmer), with exposure times up to ten seconds with medium to high gain settings. Data were normalized to average no enzyme control as 100% enzyme inhibition and average DMSO neutral control. See Supplementary Table 4 for additional details. As a proof-of-concept target, we appended the sensor protein or corresponding α-peptide to either the N- or C-terminus of the target protein firefly luciferase (FLuc), an ATP cofactor-dependent monooxygenase (Supplementary Fig. 1a) having a broad, well-characterized and accessible ligand pharmacology. For initial characterization of the SDR concept, either NLuc or the 11 amino acid HiBiT tag (α-peptide) and complementary 18 kDa LgBiT subunit (ω-fragment), which self-assemble to reconstitute functional NLuc enzyme[24] were tested. In contrast to the ATP-dependent bioluminescent FLuc enzyme, NLuc generates a bright bioluminescence in an ATP-independent manner from the direct oxidation of furimazine (Supplementary Fig. 1b). […] Next, FLuc-C-NLuc, FLuc-N-HiBiT or FLuc-C-HiBiT were assayed with the same inhibitor in an SDR assay format by monitoring bioluminescence from NLuc or its reconstitution by α-complementation with LgBiT. Measurements of NLuc activity were made either in the absence or presence of the FLuc ATP cofactor, as NLuc bioluminescence is ATP-independent.

T1 sequence (P08659 whole entry, looked up): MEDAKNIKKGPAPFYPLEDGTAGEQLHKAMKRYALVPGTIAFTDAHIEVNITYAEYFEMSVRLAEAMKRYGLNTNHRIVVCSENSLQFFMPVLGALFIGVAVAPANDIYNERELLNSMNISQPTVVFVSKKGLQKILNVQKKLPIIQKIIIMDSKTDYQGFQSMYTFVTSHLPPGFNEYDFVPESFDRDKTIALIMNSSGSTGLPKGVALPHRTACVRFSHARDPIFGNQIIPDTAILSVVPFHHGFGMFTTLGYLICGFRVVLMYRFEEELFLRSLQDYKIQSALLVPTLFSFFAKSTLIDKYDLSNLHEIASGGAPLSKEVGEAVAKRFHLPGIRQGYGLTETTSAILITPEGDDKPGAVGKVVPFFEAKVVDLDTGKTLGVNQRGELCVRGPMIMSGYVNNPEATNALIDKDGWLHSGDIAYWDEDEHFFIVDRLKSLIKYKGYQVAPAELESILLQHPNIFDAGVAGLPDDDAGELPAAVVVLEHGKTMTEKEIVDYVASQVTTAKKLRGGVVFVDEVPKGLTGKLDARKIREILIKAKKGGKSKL

SMILES | IC50 [µM]
CCOc1ncccc1C(=O)OCC(=O)Nc1ccc(-c2nc3ccc(C)cc3s2)cc1 [MLS000418033-02] | 16
Cc1ccc(C(=O)Nc2cccc(C(=O)O)c2)cc1 [MLS000530214-02] | 0.0556
Nc1nc2c(ncn2COCCO)c(=O)[nH]1 [NCGC00015061-13] | > 30
O=c1[nH]nc2n1CCCCC2 [NCGC00019120-02] | > 30
Cc1n[nH]c2c1C(c1ccc(Cl)cc1)C(C#N)=C(N)O2 (stereo not drawn) [NCGC00027933-02] | > 30
Clc1cccc(-c2nc(-c3ccccn3)no2)c1 [NCGC00035901-01] | 0.989
CN1CCN(C(=O)COc2ccc(-c3nc4ccccc4s3)cc2)CC1 [NCGC00042506-01] | 0.495
c1ccc(-c2noc(-c3ccc4ccccc4c3)n2)cc1 [NCGC00045018-01] | 0.7
Fc1ccccc1-c1nc(-c2ccccc2)no1 [NCGC00058026-03] | 1.57
Cc1ccc(-c2nc(-c3ccccn3)no2)cc1Cl [NCGC00070724-01] | 0.624
Brc1ccccc1-c1nc(-c2ccccc2)no1 [NCGC00075547-01] | 3.51
Clc1ccc(-c2nc(-c3ccccn3)no2)cc1Cl [NCGC00075852-01] | 5.56
Cc1ccc(-c2noc(-c3ccccc3Br)n2)cc1 [NCGC00079622-01] | 1.57
Brc1ccc(-c2nc(-c3ccccn3)no2)o1 [NCGC00079657-01] | 1.24
c1ccc(-n2ncc3c(N4CCCCC4)ncnc32)cc1 [NCGC00081373-03] | 0.881
CC1CCCN(c2ncnc3c2cnn3-c2ccccc2)C1 (stereo not drawn) [NCGC00081381-02] | 0.442
CC1CCCN(c2ncnc3c2cnn3-c2ccc(Cl)cc2)C1 (stereo not drawn) [NCGC00081383-02] | 0.124
Cc1ccc(-n2ncc3c(N4CCCC(C)C4)ncnc32)c(C)c1 (stereo not drawn) [NCGC00081401-03] | 11.1

SMILES | IC50 [µM]
CC1CCN(c2ncnc3c2cnn3-c2ccccc2)CC1 [NCGC00081403-02] | 6.24
Cc1ccc(-c2nc(-c3ccccc3)no2)c(Cl)c1 [NCGC00085930-01] | 0.197
O=c1[nH]cnc2c1ncn2[C@H]1CC[C@@H](CO)O1 [NCGC00090691-03] | > 30
Cc1ccc2nc(-c3ccc(N)cc3)sc2c1[S+](=O)([O-])O [NCGC00091147-01] | 2.48
Nc1nc2c(nc(S)n2[C@@H]2O[C@H](CO)[C@@H](O)[C@H]2O)c(=O)[nH]1 [NCGC00096124-01] | 2.48
Oc1c(Br)cc(Br)cc1-c1nc2ccccc2s1 [NCGC00098096-01] | 12.4
CC(=O)Nc1cc(-c2nc3ccccc3s2)ccc1C [NCGC00098099-01] | 7
COc1cccc2cc(-c3nnc(-c4ccc(Cl)cc4)o3)c(=O)oc12 [NCGC00098120-01] | 3.51
Nc1ccc2nc(-c3ccc(O)cc3)sc2c1 [NCGC00098122-01] | 0.624
CC(=O)c1ccc(N[S+](=O)([O-])c2cccc([S+](=O)([O-])c3ccc(Cl)cc3)c2)cc1 [NCGC00098154-01] | > 30
Cc1ccc2nc(-c3ccc(NC(=O)COc4ccc(Br)cc4Br)cc3)sc2c1 [NCGC00098202-02] | 3.51
Cc1ccc2nc(-c3ccc(NC(=O)COc4ccc(Cl)c(C)c4)cc3)sc2c1 [NCGC00098204-01] | > 30
Cc1ccc2nc(-c3ccc(NC(=O)COc4ccccc4)cc3)sc2c1 [NCGC00098210-01] | 6.24
Cc1ccc2nc(-c3ccc(NC(=O)COc4ccccc4C(C)(C)C)cc3)sc2c1 [NCGC00098265-01] | 14
Cc1ccc(NC(=O)/C=C/c2ccccc2Cl)cc1Cl [NCGC00098283-01] | 3.51
COc1ccccc1-c1nc2cc(NC(=O)c3ccccc3Cl)ccc2o1 [NCGC00098320-01] | 11.1
Cc1ccc2c(c1)sc1nc(-c3cc4ccccc4oc3=O)cn12 [NCGC00098323-01] | 0.248

Next, values leading:

IC50 [µM] | SMILES
> 30 | CCc1ccc2oc(-c3ccc(NC(=O)c4ccc(OC)c(Br)c4)cc3)nc2c1 [NCGC00098340-01]
> 30 | CCCCCSc1nnc(-c2ccc(Br)cc2)o1 [NCGC00098355-01]
12.4 | O=C(Nc1ccccc1C(=O)O)c1cccc([S+](=O)([O-])N2CCCC2)c1 [NCGC00098464-01]
0.0881 | Cc1ccc(C(=O)Nc2cccc(C(=O)O)c2)cc1[S+](=O)([O-])N1CCCC1 [NCGC00098466-01]
2.79 | Cc1ccc(C(=O)Nc2ccccc2C(=O)O)cc1[S+](=O)([O-])N1CCCCCC1 [NCGC00098472-01]
> 30 | COc1cc(OC)cc(C(=O)Nc2ccccc2-c2nc3ccccc3s2)c1 [NCGC00098479-01]
0.394 | CCC(=O)Nc1cc2nn(-c3ccc(C)cc3)nc2cc1C [NCGC00098511-01]
12.4 | COc1ccc(OCC(=O)Nc2cc(-c3nc4ccccc4s3)ccc2C)cc1 [NCGC00098594-01]
> 30 | Cc1ccc(-c2nc3ccccc3s2)cc1NC(=O)COc1ccccc1 [NCGC00098596-01]
> 30 | O=C(Nc1ccc(-c2nc3ccccc3s2)c(O)c1)c1ccc(Br)cc1 [NCGC00098662-01]
> 30 | O=C(COc1ccccc1Cl)Nc1ccc(-c2nc3ccccc3s2)cc1 [NCGC00098726-01]
> 30 | O=C(COc1ccc(Cl)cc1)Nc1ccc(-c2nc3ccccc3s2)c(O)c1 [NCGC00098783-01]
9.89 | Cc1ccc2nc(-c3ccc(NC(=O)Cc4ccccc4)cc3)sc2c1 [NCGC00098885-01]
> 30 | O=C(Nc1cc(-c2nc3ccccc3s2)ccc1Cl)c1cc2ccccc2o1 [NCGC00098905-01]
12.4 | CCc1ccc2oc(-c3cccc(NC(=O)c4cc5ccccc5o4)c3)nc2c1 [NCGC00098909-01]
17.6 | N#C/C(=C\c1ccc(-c2cc(Cl)ccc2Cl)o1)C(=O)Nc1ccccc1C(=O)O [NCGC00098944-01]
7 | Clc1ccc(OCc2nc3ccccc3n2Cc2ccccc2)c(Cl)c1 [NCGC00098959-01]
5.56 | O=C(Nc1ccc2oc(-c3ccccc3F)nc2c1)c1ccccc1Cl [NCGC00098974-01]
6.24 | COc1ccc(NC(=O)/C(C#N)=C/c2ccc(C)o2)cc1 [NCGC00099040-01]
0.7 | Cc1cc2nn(-c3ccc(Cl)cc3)nc2cc1NC(=O)C(C)C [NCGC00099081-01]
> 30 | COc1ccc(OCC(=O)Nc2ccc(O)c(-c3nc4ccccc4s3)c2)cc1 [NCGC00099132-01]
9.89 | N#Cc1c(-n2ncnc2-c2ccc(Br)cc2)sc2c1CCCCC2 [NCGC00099350-01]

IC50 [µM] | SMILES
0.495 | COc1cccc2cc(C(=O)Nc3ccc(C)cc3)c(=O)oc12 [NCGC00099361-01]
6.24 | Cc1cccc(OCC(=O)Nc2cccc(-c3nc4ccccc4s3)c2)c1 [NCGC00099366-01]
1.97 | N#Cc1c(-n2ncnc2-c2cccc(Cl)c2)sc2c1CCCCC2 [NCGC00099368-01]
3.13 | N#Cc1c(-n2ncnc2-c2cccc(Br)c2)sc2c1CCCCC2 [NCGC00099370-01]
2.21 | N#Cc1c(-n2ncnc2-c2ccccc2Cl)sc2c1CCCCC2 [NCGC00099372-01]
7 | O=C(COc1ccc(Cl)cc1)Nc1ccc(-c2nc3cc(Cl)ccc3o2)c(O)c1 [NCGC00099397-01]
0.881 | CCOc1ccc2nc(NC(=O)c3ccccc3)sc2c1 [NCGC00099426-02]
14 | O=C(Nc1cccc(-c2nc3ccccc3[nH]2)c1)c1ccccc1F [NCGC00099429-01]
11.1 | Cc1ccc2nc(-c3ccc(NC(=O)COc4c(C)ccc(C)c4C)cc3)sc2c1 [NCGC00099580-01]
1.4 | Cc1ccc(C(=O)Nc2ccc3oc(-c4cccnc4)nc3c2)c(Cl)c1 [NCGC00099674-01]
9.89 | Cc1cccc(NC(=O)c2c(N)sc3c2CCC(C)C3)c1 (stereo not drawn) [NCGC00099772-01]
12.4 | CCOC(=O)c1ccc(NC2SC(=O)N(Cc3cccc(C(=O)O)c3)C2=O)cc1 (stereo not drawn) [NCGC00099894-01]
0.785 | Cc1ccc2nc(-c3ccc(NC(=O)C(F)(F)F)cc3)sc2c1 [NCGC00100068-01]
11.1 | CCCOC(=O)CSc1ncnc2sc3c(c12)CCC(C)C3 (stereo not drawn) [NCGC00100112-01]
0.176 | Nc1c(C(=O)Nc2ccc(C(=O)O)cc2)sc2nc3c(cc12)CCCC3 [NCGC00100367-01]
12.4 | CCOC(=O)C1(C)C=C(Nc2cccc(C(=O)O)c2)C(=O)N1c1ccccc1 (stereo not drawn) [NCGC00100416-01]
9.89 | COc1ccc(C(=O)Oc2ccc(C(c3c(C)n[nH]c3O)c3c(C)n[nH]c3O)cc2)cc1 [NCGC00100425-01]
3.94 | COc1ccc(-c2cc(=O)c3cc(OCC(=O)OC(C)C)ccc3o2)cc1 [NCGC00100608-01]
0.0157 | COc1ccc2oc(=O)c(C(=O)Nc3cccc(C(=O)O)c3)cc2c1 [NCGC00100698-01]
9.89 | COc1ccc(C(=O)COC(=O)CCCC(=O)Nc2ccc(C(C)=O)cc2)cc1 [NCGC00100762-01]
> 30 | O=C(COC(=O)c1cc(-c2cccs2)nc2ccccc12)c1ccc(Br)cc1 [NCGC00100768-01]
